Reference: US20250136581A1, “SUBSTITUTED TRIAZOLE DERIVATIVE, PREPARATION METHOD THEREFOR, PHARMACEUTICAL COMPOSITION THEREOF, AND USE THEREOF” (SHANGHAI SIMR BIOTECHNOLOGY CO., LTD., priority 2021, published 2025)

Assays:
[1] = target: human α5β3γ2 receptors (α5-GABAA receptor) (Homo sapiens (Human), UniProt P18507+P31644); assay: 3H-flunitrazepam competition binding, human α5β3γ2 GABAA receptor; conditions: HEK293 cell membranes, 1 nM 3H-flunitrazepam; read-out: α5-GABAAR Ki
Procedure, shortened: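 Radioligand displacement of 1 nM 3H-flunitrazepam from membranes of HEK293 lines stably expressing the human subtypes, 1 h at room temperature, compound in 8-point 4-fold series. Bound label on GF/C filters counted by scintillation; Ki derived from fitted IC50, with flumazenil as low control.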

[2] = target: α5-GABAA receptor (α5, β3, γ2 subunits) (Homo sapiens (Human), UniProt P18507+P31644); assay: Whole cell patch clamp, inverse agonist efficacy in HEK293 cells expressing α5-GABAA receptor; type: cell-based; conditions: GABA 0.05 μM, −60 mV; for inhibition at 0.1 µM: HEK293, drug 100 nM, read-out: Compound inverse agonist efficacy %
Excerpt: The inventors used electrophysiological methods to determine the inverse agonist efficacy of the drugs to be tested on the α5-GABAA receptor. The detailed methods are as follows:
Different subunits of the GABAA receptor were co-expressed in the HEK293 cell line to construct a fully functional GABAA receptor. The α, β, and γ subunits are essential to form a complete functional GABAA receptor. In this example, the present disclosure had established the following cell model: α5 subunit (see GenBank Accession No.: NM_000810.3 for protein sequences), β3 subunit (see GenBank Accession No.: NM_000814.5 for protein sequences), and γ2 subunit (see GenBank Accession No.: NM_000816.3 for protein sequences) were co-expressed in the HEK293 cell line, followed by screening the monoclonal stably transfected cell line. This cell line expressed a fully functional α5-GABAA receptor.
The monoclonal stably transfected HEK293 cell line expressing α5-GABAA receptor were cultured in 10 cm culture dishes and passaged when the cells grew to 80% to 90% confluent. During passaging, the culture medium was aspirated first, then 3 mL of DPBS phosphate buffer salt (Gibco™) was added to the culture dishes, and the culture dishes were shaken slightly, and DPBS was aspirated. 1 mL of trypsin (TrypLE Express, Gibco™) was added thereto, and the cells were digested at 37° C. for 1-2 minutes. Then 3 mL of complete medium (DMEM+10% FBS (Gibco™)) was added and the cells at the bottom of the culture dishes were dispersed. The cell suspension was transferred to a 15 mL centrifugal tube (Corning) and then centrifuged at 200 g for 3 minutes. The supernatant was discarded, 4 mL of complete medium was added, and the cells were gently blown and resuspended for use. If cell passaging was performed, the cell suspension was diluted at a ratio of 1:5 or 1:10. If cells for electrophysiological detection were prepared, the cell suspension was diluted in a ratio of 1:12, then added into a 24-well dish (Corning™) in which glass slides were placed and pretreated with Poly-D-Lysine, and the experiment was carried out after the cells adhered to the wall. The cells used for electrophysiology was cultured no more than 48 hours.
Drug concentration setting: The final drug concentration used in drug screening was 100 nM, and the GABA concentration was 0.05 μM. The whole cell patch clamp technique was used in electrophysiological assays, which could refer to the literature (I. Lecker, Y. Yin, D. S. Wang and B. A. Orser, British Journal of Anaesthesia, 2013, 110 (Si), i73-i81). The compositions of the extracellular solution for electrophysiology assay were as follows: 150 mM NaCl, 5 mM KCl, 2.5 mM CaCl2, 1 mM MgCl2, 10 mM HEPES, and 10 mM glucose (pH 7.4); the formulation of the electrode internal fluid for electrophysiology use was as follows: 140 mM CsCl, 11 mM EGTA, 10 mM HEPES, 2 mM CaCl2, 1 mM MgCl2, 4 mM MgATP, and 2 mM TEA (pH 7.3). The signal acquisition used an EPC-10 amplifier and the PatchMaster software (HEKA) or Axon700B amplifier and Clampex software (AXON). The recording electrode was pulled from borosilicate glass, and the electrode resistance was 4 to 6 MQ. The ALA-VC-8PG™ system was used for drug application. Single cell that grew independently was selected for recording. During recording, the cell membrane potential was clamped at −60 mV. During experiment, an extracellular solution was applied outside the cells for about 20 seconds. When the baseline reached to a stable state, the extracellular solution was switched to the GABA solution to induce an inward current. After about 20 to 40 seconds until the current was stable, the solution was switched to a corresponding drug solution to detect the effect of the drug. At last, the solution was switched to the extracellular solution, and the experiment was terminated when the baseline returned to the level before drug application. […]

| Structure (SMILES) | Ki [1] [nM] | inhibition at 0.1 µM [2] [%] | Compound inverse agonist efficacy % ([2]; drug 100 nM) [%] |
| --- | --- | --- | --- |
| Cc1nnn(-c2ccc(C(F)F)cc2)c1COc1ccc(N2CCN3CC(C4CC4)NC(=O)[C@@H]3C2)nn1 (single isomer, unassigned) [Example 203] | 1.99 | 50.8 |  |
| Cc1nnn(-c2ccc(C(F)F)cc2)c1COc1ccc(N2CCN3CC(CC(C)C)NC(=O)[C@@H]3C2)nn1 (single isomer, unassigned) [Example 208] | 1.96 | 55.9 |  |
| Cc1nnn(-c2ccc(C(F)F)cc2)c1COc1ccc(N2CCN3CC(CC(C)C)NC(=O)[C@@H]3C2)nn1 (single isomer, unassigned) [Example 209] | 2.04 |  | −52.08 |
| Cc1nnn(-c2ccc(C(F)F)cc2)c1COc1ccc(N2CCN3CC(c4cnn(C)c4)NC(=O)[C@@H]3C2)nn1 (single isomer, unassigned) [Example 210] | 2.79 | 47.6 |  |
| Cc1nnn(-c2ccc(C(F)F)cc2)c1COc1ccc(N2CCN3CCOC[C@@H]3C2)nn1 [Example 13, (S)-8-(6-((1-(4-(Difluoromethyl)phenyl)-4-methyl-1H-1,2,3-triazol-5-yl)methoxy)pyridazin-3-yl)octahydropyrazino[2,1-c][1,4]oxazine] | 2.2 | 43.3 |  |
| Cc1nnn(-c2ccc(C(F)F)cc2)c1COc1ccc(N2CCN[C@@H](C(=O)O)C2)nn1 [Example 28, (R)-4-(6-((1-(4-(Difluoromethyl)phenyl)-4-methyl-1H-1,2,3-triazol-5-yl)methoxy)pyridazin-3-yl)piperazine-2-carboxylic acid] | 4.31 | 47.7 |  |
| CNC(=O)[C@@H]1CN(c2ccc(OCc3c(C)nnn3-c3ccc(C(F)F)cc3)nn2)CCN1 [Example 30, (S)-4-(6-((1-(4-(Difluoromethyl)phenyl)-4-methyl-1H-1,2,3-triazol-5-yl)methoxy)pyridazin-3-yl)-N-methylpiperazine-2-carboxamide] | 2.72 | 41.9 |  |
| Cc1nnc([C@@H]2CN(c3ccc(OCc4c(C)nnn4-c4ccc(C(F)F)cc4)nn3)CCN2)o1 [Example 34, (S)-2-(4-(6-((1-(4-(Difluoromethyl)phenyl)-4-methyl-1H-1,2,3-triazol-5-yl)methoxy)pyridazin-3-yl)piperazin-2-yl)-5-methyl-1,3,4-oxadiazole] | 7.08 | 42.2 |  |
| Cc1nnn(-c2ccc(C(F)F)cc2)c1COc1ccc(N2CCO[C@H](C(=O)O)C2)nn1 [Example 35, (S)-4-(6-((1-(4-(Difluoromethyl)phenyl)-4-methyl-1H-1,2,3-triazol-5-yl)methoxy)pyridazin-3-yl)morpholine-2-carboxylic acid] | 9.03 | 52.8 |  |
| Cc1nnn(-c2ccc(C(F)F)cc2)c1COc1ccc(N2CC(C(=O)NC3CC3)C2)nn1 [Example 44, N-Cyclopropyl-1-(6-((1-(4-(difluoromethyl)phenyl)-4-methyl-1H-1,2,3-triazol-5-yl)methoxy)pyridazin-3-yl)azetidine-3-carboxamide] | 2.31 | 49.6 |  |
| Cc1nnn(-c2ccc(C(F)F)cc2)c1COc1ccc(N2CC(C(=O)NC3COC3)C2)nn1 [Example 45, 1-(6-((1-(4-(Difluoromethyl)phenyl)-4-methyl-1H-1,2,3-triazol-5-yl)methoxy)pyridazin-3-yl)-N-(oxetan-pyridin-3-yl)azetidine-3-carboxamide] | 3.26 | 50.8 |  |
| Cc1nnn(-c2ccc(C(F)F)cc2)c1COc1ccc(N2CC(C(=O)NC3CCN(C)CC3)C2)nn1 [Example 46, 1-(6-((1-(4-(Difluoromethyl)phenyl)-4-methyl-1H-1,2,3-triazol-5-yl)methoxy)pyridazin-3-yl)-N-(1-methylpiperidin-4-yl)azetidine-3-carboxamide] | 1.91 | 41.8 |  |
| Cc1nnn(-c2ccc(C(F)F)cc2)c1COc1ccc(N2CC(C(=O)NC3CCOCC3)C2)nn1 [Example 50, 1-(6-((1-(4-(Difluoromethyl)phenyl)-4-methyl-1H-1,2,3-triazol-5-yl)methoxy)pyridazin-3-yl)-N-(tetrahydro-2H-pyran-4-yl)azetidine-3-carboxamide] | 6.43 | 41.5 |  |
| Cc1nnn(-c2ccc(C(F)F)cc2)c1COc1ccc(N2CC(C(=O)Nc3ccncc3)C2)nn1 [Example 52, 1-(6-((1-(4-(Difluoromethyl)phenyl)-4-methyl-1H-1,2,3-triazol-5-yl)methoxy)pyridazin-3-yl)-N-(pyridin-4-yl)azetidine-3-carboxamide] | 1.1 | 45.9 |  |
| Cc1nnn(-c2ccc(C(F)F)cc2)c1COc1ccc(N2CCN(C3CCOC3)C(=O)C2)nn1 (centres unmarked) [Example 58, 4-(6-((1-(4-(Difluoromethyl)phenyl)-4-methyl-1H-1,2,3-triazol-5-yl)methoxy)pyridazin-3-yl)-1-(tetrahydrofuran-3-yl)piperazin-2-one] | 1.85 | 46 |  |

Next, values leading:

| Ki [1] [nM] | inhibition at 0.1 µM [2] [%] | Compound inverse agonist efficacy % ([2]; drug 100 nM) [%] | Structure (SMILES) |
| --- | --- | --- | --- |
| 1.28 | 40.8 |  | Cc1nnn(-c2ccc(C(F)F)cc2)c1COc1ccc(N2CCNC(=O)CC2)nn1 [Example 3, 1-(6-((1-(4-(Difluoromethyl)phenyl)-4-methyl-1H-1,2,3-triazol-5-yl)methoxy)pyridazin-3-yl)-1,4-diazepan-5-one] |
| 0.58 | 49.1 |  | Cc1nnn(-c2ccc(C(F)F)cc2)c1COc1ccc(N2CCNC(=O)C2C)nn1 (centres unmarked) [Example 11, 4-(6-((1-(4-(Difluoromethyl)phenyl)-4-methyl-1H-1,2,3-triazol-5-yl)methoxy)pyridazin-3-yl)-3-methylpiperazin-2-one] |
| 2.13 | 51.5 |  | Cc1nnn(-c2ccc(C(F)F)cc2)c1COc1ccc(N2CCC2=O)nn1 [Example 18, 1-(6-((1-(4-(Difluoromethyl)phenyl)-4-methyl-1H-1,2,3-triazol-5-yl)methoxy)pyridazin-3-yl)azetidin-2-one] |
| 1.97 | 51.2 |  | Cc1nnn(-c2ccc(C(F)F)cc2)c1COc1ccc(N2CCCC2=O)nn1 [Example 20, 1-(6-((1-(4-(Difluoromethyl)phenyl)-4-methyl-1H-1,2,3-triazol-5-yl)methoxy)pyridazin-3-yl)pyrrolidin-2-one] |
| 13.6 | 49 |  | Cc1nnn(-c2ccc(C(F)F)cc2)c1COc1ccc(N2CC(=O)N[C@H](C(=O)O)C2)nn1 [Example 36, (S)-4-(6-((1-(4-(Difluoromethyl)phenyl)-4-methyl-1H-1,2,3-triazol-5-yl)methoxy)pyridazin-3-yl)-6-oxopiperazine-2-carboxylic acid] |
| 12.3 | 50.6 |  | Cc1nnn(-c2ccc(C(F)F)cc2)c1COc1ccc(N2CC(C(=O)O)C2)nn1 [Example 37, 1-(6-((1-(4-(Difluoromethyl)phenyl)-4-methyl-1H-1,2,3-triazol-5-yl)methoxy)pyridazin-3-yl)azetidine-3-carboxylic acid] |
| 0.27 | 52 |  | Cc1nnn(-c2ccc(C(F)F)cc2)c1COc1ccc(C2=CC(=O)NCC2)nn1 [Example 57, 4-(6-((1-(4-(Difluoromethyl)phenyl)-4-methyl-1H-1,2,3-triazol-5-yl)methoxy)pyridazin-3-yl)-5,6-dihydropyridin-2(1H)-one] |
